# Assay results: patent US20260216197A1, “WRN HELICASE INHIBITOR” (SUZHOU PUHE BIOPHARMA CO., LTD., priority 2022, published 2026)
# Read-outs that look alike come from different tables or passages of the source.
# Test system: MSI-H colorectal cancer SW48 cell line
# Assay: 2D anti-proliferative activity, MSI-H SW48 cells (CTG, 5 days)
# Assay type: cell-based
# Settings: for inhibition at 38.15 pM: 0.038146973 nM; for inhibition at 0.000152588 µM: 0.152587891 nM; for inhibition at 0.000610352 µM: 0.610351563 nM; for inhibition at 0.00244141 µM: 2.44140625 nM; for inhibition at 0.00976562 µM: 9.765625 nM; for inhibition at 0.0390625 µM: 39.0625 nM; for inhibition at 0.15625 µM: 156.25 nM; for inhibition at 0.625 µM: 625 nM; for inhibition at […]: 2500 nM; for inhibition at 10 µM: 10000 nM
# How it was run: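 SW48 cells in RPMI 1640/10% FBS were exposed to serially varied compound concentrations for 5 days at 37 °C, 5% CO2. Viability was read as ATP-dependent CellTiter-Glo luminescence after 30 min.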
# [1] = Homo sapiens, read-out: Average value/ Inhibition rate
# [2] = Homo sapiens, read-out: Test 1/ Inhibition rate
# [3] = Homo sapiens, read-out: Test 2/ Inhibition rate
structure (smiles),measurement,setting,value
CCc1c(N2CCN(C(=O)c3ncnc(C)c3O)CC2)c(=O)n2nc(C3=CCOCC3)nc2n1CC(=O)Nc1ccc(C(F)(F)F)c2ccoc12 [Compound H22],inhibitory activity on SW48 cells,39 nM,high inhibitory activity
same,inhibition at 38.15 pM,[1],-4.19%
same,inhibition at 38.15 pM,[2],-1.57%
same,inhibition at 38.15 pM,[3],-6.81%
same,inhibition at 0.000152588 µM,[1],0.206%
same,inhibition at 0.000152588 µM,[2],-0.184%
same,inhibition at 0.000152588 µM,[3],0.596%
same,inhibition at 0.000610352 µM,[1],-2.48%
same,inhibition at 0.000610352 µM,[2],-1.27%
same,inhibition at 0.000610352 µM,[3],-3.7%
same,inhibition at 0.00244141 µM,[1],-0.303%
same,inhibition at 0.00244141 µM,[2],2.69%
same,inhibition at 0.00244141 µM,[3],-3.3%
same,inhibition at 0.00976562 µM,[1],-6.3%
same,inhibition at 0.00976562 µM,[2],-5.49%
same,inhibition at 0.00976562 µM,[3],-7.12%
same,inhibition at 0.0390625 µM,[1],29.2%
same,inhibition at 0.0390625 µM,[2],28.4%
same,inhibition at 0.0390625 µM,[3],30%
same,inhibition at 0.15625 µM,[1],98%
same,inhibition at 0.15625 µM,[2],98.4%
same,inhibition at 0.15625 µM,[3],97.6%
same,inhibition at 0.625 µM,[1],98.1%
same,inhibition at 0.625 µM,[2],98.3%
same,inhibition at 0.625 µM,[3],97.9%
same,inhibition at […],[1],99.6%
same,inhibition at […],[2],99.9%
same,inhibition at […],[3],99.2%
same,inhibition at 10 µM,[1],101%
same,inhibition at 10 µM,[2],102%
same,inhibition at 10 µM,[3],101%
same,IC50,"Homo sapiens, 120 h, 5 days",47 nM
